The values that follow come from PubChem BioAssay (NCI).

Some test systems named below: T-47D breast; ACHN renal; UO-31 renal; U251 CNS; M14 melanoma; HS 578T breast; A498 renal; 786-0 renal.
Holding throughout (test): DTP human tumour cell line panel, 48 h

Structures are written as SMILES.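 All cell lines were grown in 96-well plates and treated with compound for 48 hours. At the GI50, growth is halved. Definition used: TGI = concentration required for complete inhibition of growth.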

For orientation: TGI means the concentration giving total growth inhibition. The GI50 is the concentration giving 50% growth inhibition.

As to `O=c1/c(=N\Nc2ccccc2)c2cccc3ccc4cccc1c4c32`, the TGI with T-47D breast was > 100 µM; in the assay with ACHN renal it was 88.6 µM; in the assay on UO-31 renal it was > 100 µM; in the assay on U251 CNS, > 100 µM; in the assay on M14 melanoma it was > 100 µM; with HS 578T breast, > 100 µM. The TGI in the assay on A498 renal and with 786-0 renal was > 100 µM throughout.

As for `Nc1cccc2c1C(=O)c1cccc(NC(=O)c3ccccc3)c1C2=O`, the GI50 in the assay on T-47D breast was 1.1 µM; with ACHN renal, 0.59 µM; in the assay with UO-31 renal it was 0.474 µM; in the assay with U251 CNS it was 0.54 µM; in the assay with M14 melanoma it was 0.4 µM; with HS 578T breast, 0.412 µM. Besides, the GI50 in the assay on A498 renal was 0.306 µM; with 786-0 renal, 0.646 µM. For the same molecule, the concentration for total growth inhibition (TGI) with T-47D breast was > 100 µM; in the assay on ACHN renal it was > 100 µM; in the assay on UO-31 renal it was > 100 µM; in the assay on U251 CNS, 13.8 µM; in the assay with M14 melanoma, 36.4 µM; in the assay with HS 578T breast, > 53.1 µM. For the same molecule, the TGI is 6.56 µM in the assay on A498 renal and 15.7 µM in the assay with 786-0 renal.

Consider `CC1=NOC(=O)/C1=C/c1ccc2c(c1)OCO2`, for which the TGI in the assay with T-47D breast was > 100 µM; in the assay on ACHN renal it was 38.2 µM; in the assay on UO-31 renal, 38.9 µM; in the assay on U251 CNS it was 38 µM; with M14 melanoma, > 100 µM; in the assay with HS 578T breast it was > 100 µM. Moreover, the TGI was 62.3 µM in the assay with A498 renal and 46.6 µM in the assay with 786-0 renal.

`Cc1cc(O)c(-c2ccc([C@@H](C)CN(C)C)cc2)c2c1[nH]c(=O)c1sccc12`: the GI50 is 0.309 µM in the assay on T-47D breast; 0.794 µM with ACHN renal; 0.287 µM in the assay on UO-31 renal; 0.399 µM in the assay with U251 CNS; 0.705 µM in the assay with M14 melanoma; 0.207 µM with HS 578T breast. Moreover, the GI50 in the assay on A498 renal was 0.265 µM; in the assay with 786-0 renal, 0.248 µM. Also, the TGI with T-47D breast came out at 5.19 µM; in the assay on ACHN renal, 7.95 µM; in the assay with UO-31 renal, 1.88 µM; in the assay with U251 CNS it was 17.4 µM; in the assay on M14 melanoma, 4.34 µM; with HS 578T breast, 20.8 µM. Besides, the TGI in the assay with A498 renal came out at 0.929 µM; with 786-0 renal it was 5.43 µM.

`O=c1[nH]c(=O)n(C2CC(O)C(CO)O2)cc1C(F)(F)F` (configuration not stated): the GI50 in the assay with T-47D breast was 3.34 µM; with ACHN renal it was 1.3 µM; in the assay on UO-31 renal, 1.75 µM; with U251 CNS, 4.42 µM; with M14 melanoma, 1.01 µM; with HS 578T breast, > 100 µM. Further, in the assay with 786-0 renal, the GI50 is 0.464 µM. Besides, the TGI in the assay with T-47D breast was > 100 µM; with ACHN renal, > 100 µM; in the assay on UO-31 renal, > 100 µM; with U251 CNS, > 100 µM; in the assay with M14 melanoma, > 34.5 µM; with HS 578T breast, > 100 µM. The total growth inhibition concentration (TGI) with A498 renal was > 92 µM.

Regarding `CN(C)CCCNc1nc2ccccc2c2[nH]c3ccccc3c12`, the GI50 is 5.18 µM in the assay with T-47D breast; 0.703 µM with ACHN renal; 1.69 µM in the assay on UO-31 renal; 0.679 µM in the assay on U251 CNS; 1.11 µM in the assay on M14 melanoma; 3.04 µM in the assay with HS 578T breast. Also, the values for the GI50 in the assay on A498 renal and with 786-0 renal were 6.42 µM and 0.958 µM, respectively. Moreover, the total growth inhibition concentration (TGI) in the assay with T-47D breast was determined as 16.5 µM; in the assay with ACHN renal, 2.24 µM; in the assay on UO-31 renal, 10.9 µM; in the assay on U251 CNS, 2.59 µM; in the assay on M14 melanoma, 2.46 µM; in the assay with HS 578T breast, 9.61 µM. For the same molecule, the TGI in the assay with A498 renal came to 13.4 µM; with 786-0 renal, 5.2 µM.

In the case of `CO/N=C(\COc1ccc2oc(-c3ccccc3)cc(=O)c2c1)c1ccc(F)cc1`, the GI50 in the assay with T-47D breast was 21.5 µM; in the assay with ACHN renal, 17.2 µM; in the assay with UO-31 renal, 18.1 µM; in the assay with U251 CNS, 18 µM; with M14 melanoma it was 32.2 µM; in the assay with HS 578T breast, 23.2 µM. Also, the GI50 in the assay on A498 renal was 29.1 µM; in the assay on 786-0 renal, 21.3 µM. The TGI in the assay on T-47D breast is 59.3 µM; with ACHN renal it was 34.5 µM; with UO-31 renal it was 42.1 µM; in the assay on U251 CNS, 35.1 µM; in the assay with M14 melanoma, > 100 µM; with HS 578T breast, 71 µM. Besides, the figures for the TGI in the assay on A498 renal and in the assay on 786-0 renal were 82.9 µM and 43.7 µM, respectively.

For `C[C@@H]1CC[C@@]2(NC1)O[C@H]1C[C@H]3[C@@H]4CC[C@H]5C[C@@H](O)CC[C@]5(C)[C@H]4CC[C@]3(C)[C@H]1[C@@H]2C`, the TGI was > 100 µM in the assay with T-47D breast; 85.5 µM with ACHN renal; > 100 µM with UO-31 renal; > 100 µM with U251 CNS; > 100 µM with M14 melanoma; > 100 µM in the assay on HS 578T breast. In addition, the TGI in the assay with A498 renal and with 786-0 renal was > 100 µM throughout.

Regarding `CCn1c(-c2nonc2N)nc2c(N3CCCC3)nccc21`, the GI50 in the assay with T-47D breast was 20.4 µM; with ACHN renal, 9.73 µM; with UO-31 renal, 7.48 µM; in the assay with U251 CNS, 9.43 µM; in the assay with M14 melanoma, 24.5 µM; with HS 578T breast, > 19.4 µM. The GI50 was 8.39 µM with A498 renal and > 18.6 µM in the assay on 786-0 renal. For the same molecule, the TGI in the assay on T-47D breast, with ACHN renal, in the assay on UO-31 renal, in the assay on U251 CNS, in the assay with M14 melanoma and with HS 578T breast was > 25 µM throughout. The concentration for total growth inhibition (TGI) in the assay with A498 renal and in the assay with 786-0 renal was > 25 µM in each case.

On to `C[C@]12C[C@H](O)[C@H]3[C@@H](CCC4=CC(=O)CC[C@@]43C)[C@@H]1CC[C@@H]2c1csc(-c2ccccc2)n1`, for which the TGI was > 100 µM in the assay on T-47D breast; > 100 µM with ACHN renal; > 46.2 µM in the assay with UO-31 renal; > 71.4 µM in the assay with U251 CNS; > 100 µM in the assay with M14 melanoma; > 80 µM with HS 578T breast. Also, the total growth inhibition concentration (TGI) with A498 renal and with 786-0 renal was > 100 µM throughout.

Consider `O=C1N=C(Nc2nc(-c3csc(NC4=NC(=O)/C(=C\c5ccccc5)S4)n3)cs2)S/C1=C/c1ccccc1`, for which the GI50 with T-47D breast is > 50 µM; in the assay on ACHN renal, 12.2 µM; with UO-31 renal, 17.5 µM; with U251 CNS, 6.34 µM; in the assay with M14 melanoma, 4.63 µM; with HS 578T breast, > 50 µM. The GI50 was > 50 µM in the assay on A498 renal and 9.54 µM in the assay with 786-0 renal. Besides, the TGI with T-47D breast is > 50 µM; in the assay with ACHN renal it was 46.3 µM; with UO-31 renal it was > 50 µM; in the assay on U251 CNS, > 50 µM; in the assay on M14 melanoma, 32.3 µM; in the assay on HS 578T breast it was > 50 µM. In addition, the TGI in the assay with A498 renal is > 50 µM; in the assay with 786-0 renal, 34.9 µM.
